According to US5763453A, “Condensed indan derivatives and salts thereof” (Taiho Pharmaceutical Co., Ltd., priority 1995, dated 1998):
In brackets after ≈: the same amount, converted by molar mass. Structures can show the parent of a compound that is named as a salt.

Test system: P 388 mouse leukemia cell line
Experiment: Cytocidal effect on P 388 mouse leukemia cells (crystal violet cytometry, three days' incubation)
Assay type: cell-based
Conditions: P388, 72 h, 2×10^3 cells/well, read-out: IC50 (concentration at which the cell count is 50% less than that of the control)
Description: Cytocidal Effect A 96-well plate was innoculated with 2×10^3 cells/well of P 388 mouse leukemia cell line. The compound of the present invention was dissoved in purified water or dimethylsulfoxide, and the solution was diluted with medium to various concentrations and placed into respective wells and incubated. After three day's incubation, the plate was fixed with glutaraldehyde and stained with crystal violet for cytometry.

SMILES | IC50 [mg/L]
CN(C)CCNc1c2c(nc3ccccc13)-c1cc(O)ccc1C2=O [Compound 3-a] | 0.15 (≈ 0.45 µM)
CCN(CC)CCSc1c2c(nc3ccc(O)cc13)-c1ccccc1C2=O [Compound 10-a] | 0.42 (≈ 1.11 µM)
CN(C)CCNc1c2c(nc3ccc(O)cc13)-c1ccccc1C2=O [Compound 12] | 0.16 (≈ 0.48 µM)
CN(C)CCNc1c2c(nc3cc(O)ccc13)-c1ccccc1C2=O [Compound 5] | 0.052 (≈ 0.156 µM)
COc1ccc2c(c1)C(=O)c1c-2nc2ccccc2c1NCCN(C)C.Cl.Cl [Compound 1, 10-(((dimethylamino)ethyl)amino)-2-methoxy-11H-indeno[1,2-b]quinolin-11-one dihydrochloride] | 0.34
COc1ccc2nc3c(c(N4CCN(C)CC4)c2c1)C(=O)c1ccccc1-3 [Compound 13] | 0.37 (≈ 1.03 µM)
CN(C)CCNc1c2c(nc3ccccc13)-c1ccc(O)cc1C2=O.Cl.Cl [Compound 2, 10-(((dimethylamino)ethyl)amino)-2-hydroxy-11H-indeno[1,2-b]quinolin-11-one dihydrochloride] | 0.15
COc1ccc2c(NCCN(C)C)c3c(nc2c1)-c1ccccc1C3=O [Compound 4] | 0.25 (≈ 0.72 µM)
CCN(CC)CCOc1c2c(nc3ccc(O)cc13)-c1ccccc1C2=O [Compound 11, 10-(((diethylamino)ethoxy)-8-hydroxy-11H-indeno[1,2-b]quinolin-11-one hydrochloride] | 0.096
CN(C)CCCNc1c2c(nc3cc(O)ccc13)-c1ccccc1C2=O [Compound 7-a] | 0.16 (≈ 0.461 µM)
O=C1c2ccccc2-c2nc3ccc(O)cc3c(N3CCC(N4CCCCC4)CC3)c21 [Compound 16-a] | 0.43 (≈ 1.04 µM)
CN1CCN(c2c3c(nc4ccc(O)cc24)-c2ccccc2C3=O)CC1 [Compound 14] | 0.22 (≈ 0.637 µM)
